Two compounds from US20110144125A1, “Anti-Arrhythmia Agents, Methods of Their Use, Methods of Their Identification and Kits Therefore” (THE UAB RESEARCH FOUNDATION, priority 2008, published 2011) can be followed below.

The test system of experiment [1] is isolated atrial and ventricular muscle. As to conditions: >20 μM 2-APB with an agent that increases myocyte calcium load.
Method: Specifically, isolated, superfused heart muscle, atrial or ventricular, treated with an appropriate concentration of 2-APB (>20 μM) and with an agent that increases myocyte calcium load was exposed to external pacing that stimulates the muscle at a physiological rate and with strength just sufficient to capture it.
In experiment [2] the test system is rat left atrial appendage. Kind of experiment: ATXII-induced triggered activity and transition to automaticity in left atrial appendage. Conditions: ATXII-treated appendages, ˜25 μM 2-APB. An excerpt:
There are two types of afterdepolarizations; early afterdepolarizations (EADs) that occur early during repolarization and delayed afterdepolarizations (DADs) that occur in fully repolarized, resting myocytes (FIG. 4). Both EADs and DADs are defined as “triggered” activities as they require a preceding normal action potential to occur (FIG. 3B). One model to elicit EADs is to expose heart muscle or myocytes to Anemonia sulcata Toxin II (ATX II). This 47 amino acid peptide specifically enhances late sodium current and prolongs the action potential duration (FIG. 3D; middle panel). This leads to calcium loading of heart muscle followed by EADs during phase 2 or phase 3 of the action potential (FIGS. 3D & 5). These EADs, if of sufficient magnitude, produce ectopic mechanical events (FIG. 3B; ‡).
In embodiments of the assay an agent to induce arrhythmia will be introduced in the muscle. The arrhythmic agent may be chemical or physical. If the agent is chemical, it can be any chemical agent known by those skilled in the art to induce arrhythmia. The chemical agent will be introduced at a concentration sufficient to induce arrhythmia. If a certain type of arrhythmia is the subject of the assay (for example, triggered activity, tachycardia or any other type of arrhythmia), then the agent should be present at a concentration sufficient to produce the certain type of arrhythmia. One acceptable agent is anemone toxin II (“ATX II,”), the toxin of Anemone sulcata. ATX II is a sodium channel regulator.
It was tested whether the altered voltage-independent calcium homeostasis which 2-APB provokes is sufficient to initiate frank automaticity from triggered activity.

For experiment [3], the system named is right ventricular muscle strips and right or left ventricular papillary muscles. Kind of experiment: Ventricular muscle model of SMA and STA. Further details: species or system rat. As to conditions: paced at 0.5 Hz, added to the superfusate in appropriate amounts. An excerpt: To further establish this model as a general test for arrhythmic and anti-arrhythmic agents, right ventricular muscle strips and right or left ventricular papillary muscles were isolated from anesthetized rats as cardiac muscle exemplars using methods known to persons skilled in the art. Additional exemplars could include ventricular or atrial conduction system cells and the SAN itself. These muscles were then superfused as described above and paced at 0.5 Hz.

The test system of the next experiment is rat right atria. Kind of experiment: Right atrial spontaneous (pacemaker-driven) contraction frequency. Conditions: 30 nM isoproterenol. The protocol: Male Sprague-Dawley rats (325-400 g) were anesthetized with intra-peritoneal pentobarbital (0.1 g/kg). Their right and left atria were isolated, superfused at 30° C. in Krebs-Henseleit buffer, and nearly isometric forces of contraction were measured from these muscles (Wolkowicz et al., 2002). 2-APB was prepared as a 150 mM dimethyl sulfoxide stock.
Left atria (n=9) were paced at 0.1 Hz, treated with 300 nM BayK 8644 for 5 min, then with 20 μM 2-APB for 10 min, and the pacing stimulus was stopped. These preparations then were incubated with six increasing concentrations of zatebradine (10-100 μM) for 3-5 min at each concentration, and rates of SMA were recorded. Untreated right atria (n=9) also were titrated with zatebradine and its effect on contraction frequency was recorded.
To test whether zatebradine affects the SMA occurring in the presence of 2-APB and isoproterenol, left atria (n=7) were paced at 0.1 Hz, treated with 30 nM isoproterenol for 5 min, then with 20 μM 2-APB for 10 min, and the pacing stimulus was stopped. Rates of SMA were recorded, these left atria were exposed to 70 μM zatebradine for 10 min, and rates of SMA were recorded again. A group of right atria (n=7) also were exposed to 30 nM isoproterenol for 5 min and then to 70 μM zatebradine for 10 min. Right atrial contraction frequency was recorded at these two times.
To test whether ZD-7288 (4-Ethylphenyl amino-1,2-dimethyl-6-methylaminopyridinium chloride), an If inhibitor structurally unrelated to zatebradine (Baruscotti et al., 2005; Sanders et al., 2006) affects the SMA occurring in the presence of 2-APB and BayK 8644, rat left atria (n=7) were treated with 300 nM BayK 8644 for 5 min, then with 20 μM 2-APB for 10 min, and the rates of SMA were recorded. These atria then were incubated with six increasing concentrations of ZD-7288 (10-100 μM) for 3-5 min at each concentration, and the rates of SMA were recorded. Right atria (n=7) were titrated similarly with ZD-7288 (0-100 μM) and the change in their contraction frequency was recorded.

With `NCCOB(c1ccccc1)c1ccccc1` [2-APB, 2-aminoethoxydiphenyl borate], in experiment [1], the “mechanical activity under physiological-rate pacing” value is “disorganized, fibrillation-like mechanical activity”. For the same compound, the “transition from triggered activity to STA” value in experiment [2] was “STA began to occur”. In experiment [3], the “ventricular SMA” value was “ventricular SMA was observed”.
As for `CC(C)NCC(O)c1ccc(O)c(O)c1` (stereo not shown) [isoproterenol], in the experiment with rat right atria, the “right atrial contraction frequency” value was determined as 276±11.4 contractions/min.
